This passage reports melting point results from a melting point compilation (Tetko et al.; mined from patent text by program, amines drawn as free bases though some values may be those of a salt).

In general, melting point refers to the temperature, or range, at which the solid turns liquid.

Some results are limits rather than exact numbers.

The compound `CCCCCCCCCN(CCC)CCC(O)(P(=O)(O)O)P(=O)(O)O` showed a melting point of 45 to 47 °C. The compound `CC(C)CN1CCC2(CC1)CSC1=C(O2)c2ccccc2C(=O)C1=O` gave a melting point of 158 to 161 °C. Under `O=C(Nc1ccc(C(F)(F)F)cc1)N1CC(c2ccccc2)C(c2ccc(Cl)cc2)N1` (stereo not given) stands 212 to 214 °C; under `CCOC(=O)COc1cccc(Cl)c1`, 39 to 40 °C. `O=C(c1cnccn1)N1CCN(Cc2ccc3c(c2)-c2[nH]nc(-c4ccsc4)c2C3)CC1` came in with a melting point of 254 to 259 °C. In turn, `CC(=O)N(c1cccc(C(F)(F)F)c1)c1cccc(C(F)(F)F)c1` registered a melting point of 73 to 74 °C.

In turn, `S=C1CN=C(c2ccc(Cl)cc2)c2cc(I)ccc2N1` came in with a melting point of 260 to 262 °C. Take `NCCNc1ccc2ccccc2n1`: the melting point was 124 to 125 °C.

`CNc1nc(-c2ccccc2)c(-c2nc3ccccc3c(=O)n2-c2ccccc2OC)s1` gave a melting point of 241 to 243 °C.

The compound `CCCCc1nc(Cl)c(CO)n1Cc1ccc(-c2ccccc2-c2n[nH]c(=O)o2)cc1` returned a melting point of 163 to 164 °C. As to `N#Cc1c(-c2ccc(Cl)cc2)[nH]c(SC(F)(F)F)c1Br`, the melting point was in the range of 241 to 243 °C. The same measure for `O=C(CCC(=O)c1ccccc1)NCc1ccccc1`: 110 to 112 °C; for `CC(C)c1cccc2c1CC(C(=O)O)SCC2=O` (stereo not given): 157 to 158 °C. `CCC1c2ccc(C#N)n2-c2ccc(F)cc2N1S(=O)(=O)c1ccc(OC)c(C)c1` (stereo not given) showed a melting point of 196 to 199 °C. As for `Cc1cc(Cl)ccc1N1C(=O)CON(C)C1=S`, the melting point is 141 to 143 °C. Regarding `Cc1cccc2c1nc(-c1ccccc1F)n2CC(O)C(C)(C)C` (stereo not given), the melting point lay in the range of 178 to 179 °C. Consider `O=C(CC1=C(n2nc(-c3c(-c4ccccc4)nn4ccccc34)ccc2=O)CCCC1)N1CCOCC1`, for which the melting point was in the range of 202 to 204 °C. Compound `CC(=O)NCC[C@@H]1CCc2ccc3nn(C)c(Br)c3c21` returned a melting point of 167 to 169 °C. Under `COc1cccc2c1OC(CO)C2=O` (stereo not given) stands 103 to 104 °C. `CCCCCCCC(=O)N(C)Cc1cccc(-c2ccc(CCC(=O)O)cc2)c1`: the melting point came to 91 °C.

In turn, `COc1cc(OC)c(C=CC(=O)c2ccc(S(N)(=O)=O)cc2)cc1C#Cc1ccccc1N` showed a melting point of 167 to 169 °C. With `Oc1nc2ccc(F)cc2nc1O`, the melting point was greater than 300 °C. Take `Nc1cc(Cl)nc(SC/C=C/C(=O)N2CCOCC2)n1`: the melting point lay in the range of 154 to 157 °C.

For `Nc1c(F)c(N2CCNCC2)c(F)c2c1c(=O)c(C(=O)O)cn2C1CC1`, the melting point fell in the range of 257 to 259 °C. `Nc1ncnc2c1nc(SCC(O)COc1ccccc1)n2C1OC(CO)C(O)C1O` (stereo not given) yielded a melting point of 100 to 110 °C.

Take `CC(=O)Nc1cccc(-c2c(C)c(NC(=O)CC(C)(C)C)c(C)c3c2OCC3c2ccc(C(C)C)cc2)n1` (stereo not given): the melting point fell in the range of 205 to 208 °C. In turn, `NS(=O)(=O)c1cc2c(cc1Cl)C(=O)N(Cc1cccnc1)C2=O` displayed a melting point of 210 to 212 °C.

Regarding `CC12CCC3C(CCC4CC(O[Si](c5ccccc5)(c5ccccc5)C(C)(C)C)CCC43C)C1CCC2C=C(Br)Br` (stereo not given), the melting point is 69 to 71 °C.

Consider `C#CCOCCn1cnc2c(N)nc3ccccc3c21`, for which the melting point was in the range of 225 to 227 °C.

`COC(=O)C(Oc1cc(OCc2ccc3ncoc3c2)ccc1C#N)c1ccccc1C` (racemic): the melting point was 157 to 159 °C. `Cc1cccc(SCC(=O)C23CC4CC(CC(C4)C2)C3)n1` yielded a melting point of 116 °C.

Turning to `COc1cc(NC(=O)NC2CC(O)CC2N2CCC(Cc3ccc(Cl)cc3)CC2)cc(OC)c1OC` (stereo not given), the melting point lay in the range of 81 to 84 °C. Consider `Cc1ccc(N)cc1Nc1ncc(-c2cccnc2)o1`, for which the melting point is 166 °C. In turn, `COC(=N)N1CCC(c2nn(-c3ccccc3)c3ccccc23)CC1` returned a melting point of 80 to 83 °C. As for `c1ccc2c(c1)c1c(N3CCCC3)nc(N3CCCC3)nc1n2CCn1ccnc1`, the melting point fell in the range of 181 to 183 °C.
